Results taken from patent publication US8664397B2, “Pyrrolopyridine-2-carboxylic acid amide derivative useful as inhibitor of glycogen phosphorylase” (Prosidion Limited, priority 2004, dated 2014).

Tests used:
[1] = thermogravimetric method, nitrogen flow, 5° C./min heating rate
Description: Thermogravimetric analysis was performed as follows: A sample of the material (ca. 4-5 mg) was heated in a platinum vessel using slow inert gas (nitrogen) flow with 5° C./min heating rate using Derivatograph C instrument.
Thermal stability data on the product of Example 1 were obtained by the thermogravimetric method described above.

[2] = target: T1, Rabbit muscle glycogen phosphorylase a (Oryctolagus cuniculus, UniProt P00489); assay: Glycogen phosphorylase assay in vitro (reverse direction, malachite green phosphate detection); assay type: biochemical; settings: 50 mM Hepes pH 7.2, 7.5 mM glucose, 0.5 mM glucose-1-phosphate, 1 mg/mL glycogen, 30° C. for 30 min
T1 construct: purchased Sigma P1261; host or cells: rabbit muscle
T1 sequence (P00489 2-843 limits assumed): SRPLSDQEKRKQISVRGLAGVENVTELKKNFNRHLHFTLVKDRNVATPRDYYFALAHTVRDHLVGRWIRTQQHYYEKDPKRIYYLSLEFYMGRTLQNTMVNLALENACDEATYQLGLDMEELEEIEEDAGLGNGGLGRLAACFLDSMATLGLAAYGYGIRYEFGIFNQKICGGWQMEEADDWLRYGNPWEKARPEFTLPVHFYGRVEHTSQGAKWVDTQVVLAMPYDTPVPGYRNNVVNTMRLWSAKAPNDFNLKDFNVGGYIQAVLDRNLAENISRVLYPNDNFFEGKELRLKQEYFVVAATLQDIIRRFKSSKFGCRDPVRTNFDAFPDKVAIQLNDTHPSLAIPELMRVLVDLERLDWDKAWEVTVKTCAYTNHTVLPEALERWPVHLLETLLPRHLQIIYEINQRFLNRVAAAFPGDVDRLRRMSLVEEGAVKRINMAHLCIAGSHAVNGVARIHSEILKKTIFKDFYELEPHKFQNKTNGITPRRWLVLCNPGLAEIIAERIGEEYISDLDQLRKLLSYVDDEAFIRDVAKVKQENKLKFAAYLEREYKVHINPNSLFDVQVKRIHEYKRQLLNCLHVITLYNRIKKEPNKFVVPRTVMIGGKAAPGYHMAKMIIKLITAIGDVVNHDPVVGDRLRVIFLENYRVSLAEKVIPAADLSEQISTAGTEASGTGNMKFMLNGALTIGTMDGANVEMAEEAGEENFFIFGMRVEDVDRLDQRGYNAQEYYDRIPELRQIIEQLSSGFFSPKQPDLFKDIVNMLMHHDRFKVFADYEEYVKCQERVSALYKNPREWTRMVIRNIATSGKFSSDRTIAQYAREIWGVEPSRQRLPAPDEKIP
Description: α-D-Glucose-1-phosphate (disodium salt), Glycogen, D-Glucose, Malachite Green Hydrochloride, Ammonium Molybdate tetrahydrate, BSA, HEPES and rabbit muscle phosphorylase a (P1261) were purchased from Sigma. All other reagents were analytical grade.
An assay for glycogen phosphorylase activity in the reverse direction was developed based on the method described by Engers et al., Can. J. Biochem., 1970, 48, 746-754]. Rabbit muscle glycogen phosphorylase a (Sigma) was reconstituted at a stock concentration of 100 μg/mL in 25 mM Tris/HCl. […] in a 96-well plate in a final volume of 100 μL containing 50 mM Hepes pH 7.2, 7.5 mM glucose, 0.5 mM glucose-1-phosphate and 1 mg/mL glycogen. After incubation at 30° C. for 30 min, the inorganic phosphate released from glucose-1-phosphate was measured by the addition of 150 μL of malachite green/molybdate solution prepared as follows: 5 mL of 4.2% ammonium molybdate in 4N HCl, 15 mL of 0.045% malachite green, 50 μL of Tween 20. Following a 30 min incubation at room temperature, the absorbance was measured at 620 nm. For IC50 determination, 10 μL of a serial dilution of compound (100 μM to 0.004 μM) in DMSO was added to each reaction in duplicate with the equivalent concentration of DMSO added to the control uninhibited reaction. Dose response curves were then obtained by plotting % inhibition versus log10 compound concentration. […]

Row | Structure (SMILES) | Thermal stability (temperature below which the substance appeared to be stable) [1] | IC50 [2]
1 | Cl.O=C(N[C@@H](Cc1ccc(F)cc1)C(=O)N1CCC(O)CC1)c1cc2cc(Cl)ncc2[nH]1 [Example 1] | below 190 °C | 
2 | O=C(N[C@@H](Cc1ccc(F)cc1)C(=O)N1CCC(O)CC1)c1cc2cc(Cl)ncc2[nH]1 [Formula (I), 5-chloro-1H-pyrrolo[2,3-c]pyridine-2-carboxylic acid [1-(S)-(4-fluorobenzyl)-2-(4-hydroxypiperidin-1-yl)-2-oxoethyl]amide] |  | < 1000 µM
